Data as given in publication PMC4206221 (Science signaling, 2011).

Assays:
PLK3 = PLK3 (Homo sapiens, UniProt Q9H4B4); assay: kinase inhibition IC50; assay type: biochemical
PLK1 = PLK1 (Homo sapiens, UniProt P53350); assay: kinase inhibition IC50; assay type: biochemical
Sequence of PLK1 (P53350 2-603): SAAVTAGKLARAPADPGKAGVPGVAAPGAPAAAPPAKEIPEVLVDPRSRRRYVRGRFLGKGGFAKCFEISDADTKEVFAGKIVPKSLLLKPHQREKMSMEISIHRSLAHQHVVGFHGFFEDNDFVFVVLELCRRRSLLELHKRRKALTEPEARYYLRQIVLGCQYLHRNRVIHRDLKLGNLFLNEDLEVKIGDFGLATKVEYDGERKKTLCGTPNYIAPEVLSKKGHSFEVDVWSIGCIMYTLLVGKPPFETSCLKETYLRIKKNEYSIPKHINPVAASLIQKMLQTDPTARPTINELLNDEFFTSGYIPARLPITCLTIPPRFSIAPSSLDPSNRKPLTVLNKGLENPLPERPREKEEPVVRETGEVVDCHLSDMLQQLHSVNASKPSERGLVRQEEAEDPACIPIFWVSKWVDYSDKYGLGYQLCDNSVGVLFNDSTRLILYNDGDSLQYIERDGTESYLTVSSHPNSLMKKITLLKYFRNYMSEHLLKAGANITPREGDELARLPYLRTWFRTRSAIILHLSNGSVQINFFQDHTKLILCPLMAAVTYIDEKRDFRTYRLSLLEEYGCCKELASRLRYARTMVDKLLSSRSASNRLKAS

Sequence of PLK3 (Q9H4B4 whole entry): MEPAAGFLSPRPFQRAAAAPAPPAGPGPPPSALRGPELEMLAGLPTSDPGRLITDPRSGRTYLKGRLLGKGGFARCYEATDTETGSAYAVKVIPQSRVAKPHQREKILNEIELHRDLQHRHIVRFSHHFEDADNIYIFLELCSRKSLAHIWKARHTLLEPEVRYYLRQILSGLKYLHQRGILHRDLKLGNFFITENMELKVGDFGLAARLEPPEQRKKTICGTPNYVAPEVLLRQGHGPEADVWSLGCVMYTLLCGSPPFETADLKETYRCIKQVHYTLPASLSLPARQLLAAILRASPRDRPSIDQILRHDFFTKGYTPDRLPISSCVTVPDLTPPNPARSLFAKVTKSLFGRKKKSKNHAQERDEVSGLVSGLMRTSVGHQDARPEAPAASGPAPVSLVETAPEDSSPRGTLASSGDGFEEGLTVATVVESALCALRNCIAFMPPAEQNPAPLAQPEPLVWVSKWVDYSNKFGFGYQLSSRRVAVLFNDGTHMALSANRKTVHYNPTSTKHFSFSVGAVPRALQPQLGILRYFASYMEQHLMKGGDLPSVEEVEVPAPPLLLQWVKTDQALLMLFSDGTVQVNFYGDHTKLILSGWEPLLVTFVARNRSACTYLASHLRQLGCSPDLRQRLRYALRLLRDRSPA

CC[C@@H]1C(=O)N(C)c2cnc(Nc3ccc(C(=O)NC4CCC(N5C[C@@H](C)O[C@@H](C)C5)CC4)cc3OC)nc2N1C(C)C (some centres unmarked) [BI 4834]
IC50 (PLK3): 198 nM | IC50 (PLK1): 7.6 nM
